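Method: 48-hour compound exposure of cells in 96-well plates, five concentrations, linear interpolation of endpoints. The concentration for 50% growth inhibition is given as GI50.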 Active and inactive are the calls of the source. Rule as the data show it: active = GI50 up to about 1.1 µM and inactive = higher.

What all share (test): NCI tumour cell line growth inhibition, 48 h
Assay [1] has as its system SK-MEL-28.
Assay [2] relates to UO-31.
The test system of assay [3] is OVCAR-8.
Assay [4] has as its system TK-10.
For assay [5], the system named is HCC 2998.
For assay [6], the system named is BT-549.
The test system of assay [7] is MDA-N.
Assay [8] has as its system RXF 393.
In assay [9] the test system is NCI-H460.
In assay [10] the test system is UACC-62.
In assay [11] the test system is IGROV-1.
In assay [12] the test system is NCI-H522.
The test system of assay [13] is SNB-75.
Assay [14] relates to SK-MEL-2.
Assay [15] has as its system Malme-3M.
The test system of assay [16] is HCT-15.
Assay [17] deals with ACHN.
In assay [18] the test system is LOX IMVI.
Assay [19] has as its system HT-29.
The subject of assay [20] is NCI/ADR-RES.

For the compound `C=C1C(=O)OC2/C=C(/CO)C3(O)CC(O)C(C)(CC(OC(=O)/C(C)=C/C)C12)O3` (stereo unspecified), the GI50 is 7.64 µM (inactive) in [1]; 20.4 µM (inactive) in [2]; 7.66 µM (inactive) in assay [3]; 11.9 µM (inactive) in assay [4]; 10.6 µM (inactive) in [5]; 4.52 µM (inactive) in assay [6]. Also, the GI50 is 10.2 µM (inactive) in [7]; 2.81 µM (inactive) in assay [8]; 14.9 µM (inactive) in [9]; 6.62 µM (inactive) in assay [10]; 17.2 µM (inactive) in [11]; 2.4 µM (inactive) in assay [12]. Moreover, the GI50 in [13] is 39.2 µM (inactive); in assay [14] it was 22.4 µM (inactive); in assay [15], 10.2 µM (inactive); in assay [16], 7.57 µM; in assay [17] it was 6.82 µM (inactive); in assay [18], 11 µM (inactive). Further, in assay [19], the GI50 is 8.09 µM (inactive).
For `Cc1ccc(NCCCN2CCN(CCCNc3ccc(C)c4sc5ccccc5c(=O)c34)CC2)c2c(=O)c3ccccc3sc12`, the GI50 in assay [1] was 30.5 µM (inactive); in assay [2], > 100 µM (inactive); in assay [3] it was > 100 µM (inactive); in assay [5], > 100 µM (inactive); in [20], > 100 µM (inactive); in assay [7], > 100 µM (inactive). Moreover, the GI50 in [8] was 39.4 µM (inactive); in assay [9], > 100 µM (inactive); in assay [10], 68.7 µM (inactive); in assay [11], > 100 µM (inactive); in assay [12], > 100 µM (inactive); in assay [13], 20.6 µM (inactive). Besides, the GI50 is 23.4 µM (inactive) in assay [14]; > 100 µM (inactive) in [15]; > 100 µM in assay [16]; > 100 µM (inactive) in assay [17]; 98.4 µM (inactive) in [18]; > 100 µM (inactive) in assay [19].
`Cc1ccc2c(c1)CC1(C2=O)[C@H](c2ccccc2)C2C(=O)c3ccc(C)cc3C2[C@H]1c1ccccc1` (stereo partly specified): the GI50 was > 100 µM (inactive) in assay [1]; > 100 µM (inactive) in assay [2]; > 100 µM (inactive) in assay [3]; > 100 µM (inactive) in assay [4]; 43 µM (inactive) in assay [5]; > 100 µM (inactive) in assay [6]. Moreover, the GI50 in [7], in assay [8], in assay [9], in assay [10], in assay [11] and in assay [12] was > 100 µM (inactive) in each case. Besides, the GI50 in [13] was > 100 µM (inactive); in assay [15], > 100 µM (inactive); in assay [16], > 100 µM; in assay [17] it was > 100 µM (inactive); in [18] it was > 100 µM (inactive); in assay [19] it was > 100 µM (inactive).
As for `Cc1ccc(S(=O)(=O)N2c3ccccc3[C@H]3CCC=C[C@H]32)cc1`, the GI50 in assay [1] was 10.9 µM (inactive); in assay [2], 5 µM (inactive); in assay [3], 20.5 µM (inactive); in [4], 13.7 µM (inactive); in assay [5], 8.11 µM (inactive); in [6] it was 8.91 µM (inactive). Further, the GI50 was 3.06 µM (inactive) in assay [7]; 3.61 µM (inactive) in [8]; 6.56 µM (inactive) in assay [9]; 4.82 µM (inactive) in assay [10]; 10.6 µM (inactive) in assay [11]; 1.29 µM (inactive) in [12]. Besides, the GI50 was 5.05 µM (inactive) in assay [13]; 4.58 µM (inactive) in [14]; 4.07 µM (inactive) in [15]; 4.59 µM in assay [16]; 19.3 µM (inactive) in assay [17]; 10.4 µM (inactive) in [18]. Moreover, the GI50 in assay [19] was 3.45 µM (inactive).
On to `CC1=C(C(=O)c2ccccc2)C23C(=O)N(c4ccccc4)C(=O)C2=C(O)C=CC3(O)N1` (stereo unspecified), for which the GI50 was 17.3 µM (inactive) in assay [1]; 12.2 µM (inactive) in assay [2]; 34 µM (inactive) in [3]; 67.1 µM (inactive) in assay [4]; 26.7 µM (inactive) in assay [5]; 51.4 µM (inactive) in assay [20]. The GI50 was 20.4 µM (inactive) in [6]; 20.2 µM (inactive) in assay [8]; 40.8 µM (inactive) in assay [9]; 20.1 µM (inactive) in assay [10]; 25.6 µM (inactive) in [11]; 12.7 µM (inactive) in [12]. The GI50 was 24.2 µM (inactive) in [13]; 21 µM (inactive) in assay [14]; 25.2 µM (inactive) in assay [15]; 24.6 µM in assay [16]; 15.9 µM (inactive) in assay [17]; 19.8 µM (inactive) in assay [18]. The GI50 in assay [19] is 13.6 µM (inactive).
Consider `CC(=O)O[C@@H]1[C@@H](O)C2=C3[C@]4(C)[C@@H]1C(C)(C)C(=O)C[C@@H]4[C@]3(O)[C@H](OC(C)=O)[C@@]1(C[C@@H]1C)C2=O`, for which the GI50 was 16.3 µM (inactive) in assay [1]; 17.5 µM (inactive) in assay [2]; 18.5 µM (inactive) in [3]; 14.2 µM (inactive) in assay [4]; 15.4 µM (inactive) in assay [5]; 23.4 µM (inactive) in [20]. Moreover, the GI50 in assay [6] was 16.1 µM (inactive); in assay [9], 15.5 µM (inactive); in assay [10], 13.7 µM (inactive); in [11], 15.4 µM (inactive); in assay [12], 5.18 µM (inactive); in assay [13], 21.8 µM (inactive). The GI50 was 25.6 µM (inactive) in assay [14]; 13.5 µM (inactive) in [15]; 15.3 µM in assay [16]; 18.9 µM (inactive) in [17]; 14.8 µM (inactive) in [18].
Regarding `CCSC1=N/C(=C\c2ccccc2O)C(Nc2ccc(C)cc2)=N1`, the GI50 was 51.1 µM (inactive) in assay [1]; > 100 µM (inactive) in assay [2]; 80.4 µM (inactive) in assay [3]; > 100 µM (inactive) in [4]; 56 µM (inactive) in [20]; > 100 µM (inactive) in assay [6]. In addition, the GI50 in assay [8] was 75.2 µM (inactive); in [9], 38.5 µM (inactive); in assay [10], > 100 µM (inactive); in assay [11] it was 32.8 µM (inactive); in assay [12] it was 20.4 µM (inactive); in assay [13] it was 46.1 µM (inactive). In addition, the GI50 was 19.6 µM (inactive) in [14]; 33.3 µM (inactive) in [15]; 59.7 µM in [16]; 83.6 µM (inactive) in assay [17]; > 100 µM (inactive) in assay [18]; > 100 µM (inactive) in assay [19].
In the case of `Cc1ccc2c(O)cc(-c3sc4ccccc4c3C)nc2n1`, the GI50 is 19.1 µM (inactive) in [1]; 0.661 µM (active) in assay [2]; 25.2 µM (inactive) in assay [3]; 46.6 µM (inactive) in assay [4]; 17.1 µM (inactive) in assay [20]; 16.9 µM (inactive) in assay [6]. Moreover, the GI50 is 13.2 µM (inactive) in assay [7]; 16.9 µM (inactive) in [10]; 19.8 µM (inactive) in assay [11]; 16.4 µM (inactive) in assay [12]; 17.3 µM (inactive) in assay [13]; 37 µM (inactive) in [14]. For the same compound, the GI50 in assay [15] is 16.7 µM (inactive); in [16], 17.7 µM; in assay [18], 21.8 µM (inactive); in assay [19], 25.9 µM (inactive).
Regarding `Cn1c2c(c3ccccc31)CCN1OCC=C[C@@H](C(=O)O)[C@@H]21`, the GI50 was > 100 µM (inactive) in [1]; 51.3 µM (inactive) in assay [2]; > 100 µM (inactive) in [3]; > 100 µM (inactive) in assay [4]; > 100 µM (inactive) in assay [5]; > 100 µM (inactive) in assay [20]. Moreover, the GI50 in assay [7], in assay [8], in assay [9], in [10], in assay [11] and in assay [12] was > 100 µM (inactive) each time. For the same compound, the GI50 is 82 µM (inactive) in assay [13]; > 100 µM (inactive) in assay [14]; > 100 µM (inactive) in assay [15]; > 100 µM in [16]; > 100 µM (inactive) in [17]; > 100 µM (inactive) in assay [18]. The GI50 in assay [19] was > 100 µM (inactive).
On to `CCCC1C(C#N)(C#N)C(C#N)=C(N)C1(C)C(C)=O` (stereo unspecified), for which the GI50 was > 100 µM (inactive) in assay [2]; > 100 µM (inactive) in assay [3]; > 100 µM (inactive) in assay [4]; > 100 µM (inactive) in assay [5]; > 100 µM (inactive) in assay [20]; 42.7 µM (inactive) in assay [7]. The GI50 in assay [8] is 71 µM (inactive); in [10], > 100 µM (inactive); in assay [11], > 100 µM (inactive); in assay [12], 52.8 µM (inactive); in [13], 4.42 µM (inactive); in assay [14], > 100 µM (inactive). Besides, the GI50 in assay [15] is 77.1 µM (inactive); in [16] it was 29.2 µM; in assay [17] it was > 100 µM (inactive); in assay [18], > 100 µM (inactive); in [19], > 100 µM (inactive).
`O=C1CCCCCCCCCCC1CN(Cc1ccccc1)Cc1ccccc1` (stereo unspecified): the GI50 in assay [1] is 37.7 µM (inactive); in assay [2], 48.5 µM (inactive); in assay [3] it was 75.3 µM (inactive); in [4] it was > 100 µM (inactive); in [5], 28.8 µM (inactive); in assay [6] it was 50.7 µM (inactive). Besides, the GI50 in assay [7] is 40.1 µM (inactive); in assay [8], 15.4 µM (inactive); in assay [10], 13.7 µM (inactive); in [11], > 100 µM (inactive); in assay [12] it was 41.3 µM (inactive); in [13] it was 2.84 µM (inactive). Moreover, the GI50 in assay [15] was 29.4 µM (inactive); in assay [16] it was 56.5 µM; in [17], 30 µM (inactive); in [18], 22.9 µM (inactive).

The values above are taken from ChEMBL document CHEMBL1201862, “PubChem BioAssay data set” (2004).
